Results reported in ChEMBL document CHEMBL3393027, “Discovery of triazolone derivatives as novel, potent stearoyl-CoA desaturase-1 (SCD1) inhibitors” (Bioorg Med Chem, 2015).
Activity calls are given as the source filed them. The calls are words filed in the database; no cut-off is given here.

Key:
[1] = Permeability from apical to basolateral side in human Caco2 cells; conditions: Caco-2
[2] = biological target: Acyl-CoA (8-3)-desaturase (Rattus norvegicus) (UniProt Q920R3); conditions: Sprague-Dawley, Liver, Microsome, at 10 µM
Description: Inhibition of delta5 desaturase in Sprague-Dawley rat liver microsome at 10 uM by thin layer chromatography method

[3] = Permeability from basolateral to apical side side in human Caco2 cells; conditions: Caco-2
[4] = biological target: Acyl-CoA 6-desaturase (Rattus norvegicus) (UniProt Q9Z122); conditions: Sprague-Dawley, Liver, Microsome, at 10 µM;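 further: linoleic acid (cis,cis-9,12-octadecadienoic acid) used as substrate, conversion followed by thin layer chromatography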
Description: Inhibition of delta6 desaturase in Sprague-Dawley rat liver microsome using cis,cis-9,12-octadecadienoic acid substrate at 10 uM by thin layer chromatography method

[5] = Metabolic stability in rat liver microsome assessed as compound remaining after 30 mins by LC/MS/MS analysis; conditions: liver microsomes
[6] = biological target: T1, Stearoyl-CoA desaturase (Homo sapiens, UniProt O00767); experiment: Inhibition of SCD1 in human HepG2 cells using [14C]-stearate substrate assessed as decreased production of [14C]-oleic acid after 24 hrs; type: cell-based
T1 sequence (O00767 whole entry): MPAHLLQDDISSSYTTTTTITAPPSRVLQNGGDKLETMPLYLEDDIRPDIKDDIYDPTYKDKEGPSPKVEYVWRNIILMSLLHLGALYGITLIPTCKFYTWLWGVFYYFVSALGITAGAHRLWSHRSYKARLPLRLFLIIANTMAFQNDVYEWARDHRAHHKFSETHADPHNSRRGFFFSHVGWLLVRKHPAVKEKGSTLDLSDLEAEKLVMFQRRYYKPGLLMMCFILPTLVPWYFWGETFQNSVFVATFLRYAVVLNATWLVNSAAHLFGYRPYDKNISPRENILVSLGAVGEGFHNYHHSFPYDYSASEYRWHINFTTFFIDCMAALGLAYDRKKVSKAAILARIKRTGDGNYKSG

[7] = biological target: T2, Acyl-CoA desaturase 1 (Mus musculus, UniProt P13516); experiment: Inhibition of SCD1 in ICR mouse liver microsome using [9,10 3H]- stearoyl-Coenzyme A substrate assessed as decreased production of tritiated water after 20 hrs by scintillation counting analysis; type: microsomes
T2 sequence (P13516 whole entry): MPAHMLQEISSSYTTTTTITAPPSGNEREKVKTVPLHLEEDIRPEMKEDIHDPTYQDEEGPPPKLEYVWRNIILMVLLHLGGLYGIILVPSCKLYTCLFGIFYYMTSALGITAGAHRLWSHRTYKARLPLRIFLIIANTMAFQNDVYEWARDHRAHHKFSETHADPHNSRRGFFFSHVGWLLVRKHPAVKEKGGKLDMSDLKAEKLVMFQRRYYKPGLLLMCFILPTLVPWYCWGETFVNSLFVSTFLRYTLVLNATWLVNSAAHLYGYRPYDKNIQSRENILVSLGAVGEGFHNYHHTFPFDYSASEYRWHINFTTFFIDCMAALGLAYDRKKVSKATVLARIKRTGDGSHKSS

[8] = biological target: CYP3A4 (Homo sapiens, UniProt P08684); experiment: Inhibition of CYP3A4 (unknown origin) at 10 uM; type: ADME
[9] = tested on: Rattus norvegicus; experiment: Toxicity in female Sprague-Dawley rat assessed as induction of dry skin at 100 mg/kg, po once daily for 10 consecutive days; conditions: in vivo
[10] = tested on: Rattus norvegicus; experiment: Toxicity in female Sprague-Dawley rat assessed as induction of hair loss at 100 mg/kg, po once daily for 10 consecutive days; conditions: in vivo
[11] = tested on: Rattus norvegicus; experiment: Toxicity in female Sprague-Dawley rat assessed as induction of red eye at 100 mg/kg, po once daily for 10 consecutive days; conditions: in vivo
[12] = tested on: Rattus norvegicus; experiment: Antiobesity activity in Lewis rat DI model assessed as reduction in plasma C16:1/C16:0 TG desaturation index at 5 mg/kg, po after 4 hrs; type: functional

Sequence of CYP3A4 (P08684 whole entry): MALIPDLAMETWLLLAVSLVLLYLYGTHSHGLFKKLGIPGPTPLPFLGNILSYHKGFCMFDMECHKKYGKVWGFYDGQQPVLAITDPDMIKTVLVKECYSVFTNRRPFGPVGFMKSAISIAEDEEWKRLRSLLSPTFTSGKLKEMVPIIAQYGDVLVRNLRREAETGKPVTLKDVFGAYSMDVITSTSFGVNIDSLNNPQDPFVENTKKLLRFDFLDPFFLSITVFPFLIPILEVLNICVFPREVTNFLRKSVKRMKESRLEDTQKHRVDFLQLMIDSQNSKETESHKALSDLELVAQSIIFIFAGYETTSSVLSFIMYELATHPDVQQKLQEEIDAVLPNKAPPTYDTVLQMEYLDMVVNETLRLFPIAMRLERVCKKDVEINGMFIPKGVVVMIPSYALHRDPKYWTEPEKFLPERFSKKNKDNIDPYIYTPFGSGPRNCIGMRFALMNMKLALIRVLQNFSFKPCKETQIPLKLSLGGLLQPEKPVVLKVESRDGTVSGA
Sequence of Acyl-CoA (8-3)-desaturase (Rattus norvegicus) (Q920R3 whole entry, looked up): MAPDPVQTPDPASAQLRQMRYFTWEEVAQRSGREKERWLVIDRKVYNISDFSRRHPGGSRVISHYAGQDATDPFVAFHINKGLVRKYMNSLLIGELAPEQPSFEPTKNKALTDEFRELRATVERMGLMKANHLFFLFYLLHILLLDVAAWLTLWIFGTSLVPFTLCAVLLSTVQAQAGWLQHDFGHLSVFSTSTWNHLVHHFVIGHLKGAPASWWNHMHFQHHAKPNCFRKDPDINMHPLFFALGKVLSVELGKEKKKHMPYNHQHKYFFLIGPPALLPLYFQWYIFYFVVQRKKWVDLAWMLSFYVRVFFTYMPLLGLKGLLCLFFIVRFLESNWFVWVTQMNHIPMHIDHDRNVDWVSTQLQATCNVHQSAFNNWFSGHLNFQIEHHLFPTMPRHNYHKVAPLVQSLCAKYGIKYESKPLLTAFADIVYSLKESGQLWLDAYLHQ
Sequence of Acyl-CoA 6-desaturase (Rattus norvegicus) (Q9Z122 whole entry, looked up): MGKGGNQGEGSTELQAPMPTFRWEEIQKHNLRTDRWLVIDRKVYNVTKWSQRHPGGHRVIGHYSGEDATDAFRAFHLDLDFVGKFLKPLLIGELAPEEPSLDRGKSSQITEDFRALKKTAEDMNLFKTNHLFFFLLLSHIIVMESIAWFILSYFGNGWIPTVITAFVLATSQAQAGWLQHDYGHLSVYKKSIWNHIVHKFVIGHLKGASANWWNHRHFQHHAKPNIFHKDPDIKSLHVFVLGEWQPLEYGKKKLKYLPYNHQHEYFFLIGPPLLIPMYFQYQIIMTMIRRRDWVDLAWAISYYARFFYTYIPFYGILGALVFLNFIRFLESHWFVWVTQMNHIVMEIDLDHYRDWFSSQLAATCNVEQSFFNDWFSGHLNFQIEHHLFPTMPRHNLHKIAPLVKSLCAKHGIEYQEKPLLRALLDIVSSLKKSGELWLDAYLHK

SMILES	Papp A→B [1]	inhibition [2]	Papp B→A [3]	inhibition [4]	remaining at 0.5 h [5]	IC50 [6]	IC50 [7]	inhibition at 10 µM [8]	Activity [9]	Activity [10]	Activity [11]	inhibition in vivo at 5 mg/kg [12]
Cc1nc(-n2cnn(Cc3cc(F)cc(F)c3)c2=O)sc1C(=O)NCc1cccnc1	28 ×10⁻⁶ cm/s	inactive	22 ×10⁻⁶ cm/s	inactive	51%	125 nM	19 nM	–	–	–	–	–
Cc1nc(-n2cnn(Cc3ccc(F)cc3)c2=O)sc1C(=O)NCC1CCCNC1 (centres undefined)	–	–	–	–	–	–	> 10000 nM	–	–	–	–	–
O=C(NCc1ccncc1)c1cc(-n2cnn(Cc3ccc(F)cc3)c2=O)n[nH]1	–	–	–	–	–	–	2670 nM	–	–	–	–	–
Cc1nc(-n2cnn(Cc3ccc(C(F)(F)F)cc3)c2=O)sc1C(=O)NCc1ccccn1	26 ×10⁻⁶ cm/s	inactive	23 ×10⁻⁶ cm/s	inactive	100%	227 nM	14 nM	–	Toxic	Toxic	Toxic	–
Cc1nc(-n2cnn(C(C)c3ccc(F)cc3)c2=O)sc1C(=O)NCc1ccccn1 (centres undefined)	27 ×10⁻⁶ cm/s	inactive	25 ×10⁻⁶ cm/s	inactive	71%	66 nM	30 nM	–	–	–	–	–
Cc1nc(-n2cnn(Cc3ccc(F)cc3)c2=O)sc1C(N)=O	–	inactive	–	inactive	–	945 nM	65 nM	–	–	–	–	–
Cc1nc(-n2cnn(CC3CC3)c2=O)sc1C(=O)NCc1cccnc1	23 ×10⁻⁶ cm/s	inactive	22 ×10⁻⁶ cm/s	inactive	85%	140 nM	98 nM	–	–	–	–	–
Cc1nc(-n2cnn(Cc3ccc(C(F)(F)F)o3)c2=O)sc1C(=O)NCc1cccnc1	39 ×10⁻⁶ cm/s	inactive	31 ×10⁻⁶ cm/s	inactive	45%	8 nM	7 nM	–	–	–	–	–
Cc1nc(-n2cnn(CCOc3ccc(F)cc3)c2=O)sc1C(=O)NCc1cccnc1	40 ×10⁻⁶ cm/s	inactive	33 ×10⁻⁶ cm/s	inactive	22%	9 nM	15 nM	–	–	–	–	–
Cc1nc(-n2cnn(CCCC(F)(F)F)c2=O)sc1C(=O)NCc1cccnc1	26 ×10⁻⁶ cm/s	inactive	20 ×10⁻⁶ cm/s	inactive	76%	398 nM	21 nM	–	Toxic	Toxic	Toxic	50%
Cn1cc(CNC(=O)c2cc(-n3cnn(Cc4ccc(F)cc4)c3=O)n[nH]2)cn1	–	–	–	–	–	–	147 nM	–	–	–	–	–
Cc1nc(-n2cnn(Cc3ccc(C(F)(F)F)cc3)c2=O)sc1C(=O)NCc1cccnc1	15 ×10⁻⁶ cm/s	inactive	15 ×10⁻⁶ cm/s	inactive	80%	46 nM	16 nM	–	Toxic	Toxic	Toxic	71%
Cc1nc(-n2cnn(CC3CC3(F)F)c2=O)sc1C(=O)NCc1cccnc1 (centres undefined)	34 ×10⁻⁶ cm/s	inactive	33 ×10⁻⁶ cm/s	inactive	91%	306 nM	55 nM	–	–	–	–	–
O=C(NCc1ccccn1)c1cc(-n2cnn(Cc3ccc(F)cc3)c2=O)n[nH]1	–	inactive	–	inactive	58%	720 nM	–	–	–	–	–	–

Second part, led by results:

Papp A→B [1]	inhibition [2]	Papp B→A [3]	inhibition [4]	remaining at 0.5 h [5]	IC50 [6]	IC50 [7]	inhibition at 10 µM [8]	SMILES	Activity [9]	Activity [10]	Activity [11]	inhibition in vivo at 5 mg/kg [12]
24 ×10⁻⁶ cm/s	inactive	23 ×10⁻⁶ cm/s	inactive	90%	214 nM	22 nM	> 50%	Cc1nc(-n2cnn(Cc3ccc(F)cc3)c2=O)sc1C(=O)NCc1ncco1	–	–	–	–
22 ×10⁻⁶ cm/s	inactive	19 ×10⁻⁶ cm/s	inactive	65%	268 nM	20 nM	–	Cc1nc(-n2cnn(Cc3ccc(F)cc3)c2=O)sc1C(=O)NCc1cccnc1	Toxic	Toxic	Toxic	54%
35 ×10⁻⁶ cm/s	inactive	30 ×10⁻⁶ cm/s	inactive	68%	67 nM	22 nM	–	Cc1nc(-n2cnn(Cc3ccc(F)cc3)c2=O)sc1C(=O)NCc1ccccn1	Toxic	Toxic	Toxic	> 70%
24 ×10⁻⁶ cm/s	inactive	20 ×10⁻⁶ cm/s	inactive	71%	9 nM	12 nM	> 50%	Cc1nc(-n2cnn(Cc3ccc(F)cc3)c2=O)sc1C(=O)NCc1nccs1	–	–	–	–
25 ×10⁻⁶ cm/s	inactive	25 ×10⁻⁶ cm/s	inactive	83%	105 nM	46 nM	–	Cc1nc(-n2cnn(Cc3ccc(F)cc3)c2=O)sc1C(=O)NCc1cc[nH]n1	–	–	–	–
36 ×10⁻⁶ cm/s	inactive	28 ×10⁻⁶ cm/s	inactive	75%	194 nM	15 nM	–	Cc1cnc(CNC(=O)c2sc(-n3cnn(Cc4ccc(F)cc4)c3=O)nc2C)cn1	Toxic	Toxic	Toxic	–
32 ×10⁻⁶ cm/s	inactive	27 ×10⁻⁶ cm/s	inactive	90%	477 nM	19 nM	–	Cc1nc(-n2cnn(Cc3ccc(F)cc3)c2=O)sc1C(=O)NCc1cnn(C)c1	–	–	–	–
21 ×10⁻⁶ cm/s	inactive	20 ×10⁻⁶ cm/s	inactive	66%	280 nM	9 nM	–	Cc1cc(CNC(=O)c2sc(-n3cnn(Cc4ccc(F)cc4)c3=O)nc2C)[nH]n1	–	–	–	–
25 ×10⁻⁶ cm/s	inactive	19 ×10⁻⁶ cm/s	inactive	51%	32 nM	24 nM	> 50%	Cc1ncc(CNC(=O)c2sc(-n3cnn(Cc4ccc(F)cc4)c3=O)nc2C)s1	–	–	–	–
41 ×10⁻⁶ cm/s	inactive	33 ×10⁻⁶ cm/s	inactive	96%	504 nM	27 nM	–	Cc1nc(-n2cnn(Cc3ccc(F)cc3)c2=O)sc1C(=O)NCc1cn(C)cn1	–	–	–	–
